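Assay format: 96-well plates, 48-hour exposure. GI50 marks 50% less growth. TGI: total growth inhibition.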
Tests used:
Experiment in all cases: inhibition of tumour cell growth, NCI panel, 48 h
HCT-116 colon = tested on: HCT-116 colon
HOP-62 NSCLC = tested on: HOP-62 NSCLC
HOP-92 NSCLC = tested on: HOP-92 NSCLC
HT29 colon = tested on: HT29 colon
MALME-3M melanoma = tested on: MALME-3M melanoma
NCI-H460 lung = tested on: NCI-H460 lung
NCI-H522 lung = tested on: NCI-H522 lung
OVCAR-5 ovarian = tested on: OVCAR-5 ovarian
SK-MEL-2 melanoma = tested on: SK-MEL-2 melanoma
UACC-257 melanoma = tested on: UACC-257 melanoma

Row | Structure (SMILES) | GI50 (HCT-116 colon) [µM] | TGI (HCT-116 colon) [µM] | GI50 (HOP-62 NSCLC) [µM] | TGI (HOP-62 NSCLC) [µM] | GI50 (HOP-92 NSCLC) [µM] | TGI (HOP-92 NSCLC) [µM] | GI50 (HT29 colon) [µM] | TGI (HT29 colon) [µM] | GI50 (MALME-3M melanoma) [µM] | TGI (MALME-3M melanoma) [µM] | GI50 (NCI-H460 lung) [µM] | TGI (NCI-H460 lung) [µM] | GI50 (NCI-H522 lung) [µM] | TGI (NCI-H522 lung) [µM] | GI50 (OVCAR-5 ovarian) [µM] | TGI (OVCAR-5 ovarian) [µM] | GI50 (SK-MEL-2 melanoma) [µM] | TGI (SK-MEL-2 melanoma) [µM] | GI50 (UACC-257 melanoma) [µM] | TGI (UACC-257 melanoma) [µM]
1 | COc1ccc(C2=C(c3ccc(OC)c(OC)c3)C(=O)N3CCCC3C2)cc1 (stereo unspecified) | 9.64 | > 100 | 14.7 | > 100 | 41.3 | > 100 | 13.6 | > 100 | > 71.4 | > 100 | 4.46 | 23.3 | 15.7 | > 100 | > 100 | > 100 | > 71.1 | > 100 | 62.3 | > 100
2 | COc1cccc(NC(=O)CC(=O)N2N=C(n3ccc4ccccc43)CC2c2ccccc2)c1 (stereo unspecified) |  | > 100 |  | > 100 |  | > 100 |  | > 100 |  | > 100 |  | > 100 |  | > 100 |  | > 100 |  | > 100 |  | > 100
3 | COc1cc([N+](=O)[O-])c(OC)cc1-c1nc2sccn2c1/C=N/N=C(N)N | 21.7 | 94.4 | 13.6 | 46.9 | 19.3 | 45.4 | 82.1 | > 100 | 11 | 40.7 | 28.3 | > 100 | 21 | > 100 | 53.8 | > 100 | 30.9 | > 100 | 21.5 | 54.2
4 | O=C(Nc1ccc(Oc2cccc(F)c2)c(Cl)c1)c1cnccn1 | 0.596 | > 50 | 0.973 | > 50 | 1.44 | > 50 | 0.234 | > 50 | 3.03 | > 50 | 1.79 | > 50 | 1.19 | > 50 | 4.27 | > 50 | 2.15 | > 50 | 4.53 | > 50
5 | C[C@]12CC[C@@H]3c4ccc(O)cc4CC[C@H]3[C@@H]1Cc1cnc(N)nc12 | 23.6 | 69.2 | 25.5 | 59.1 | 11.7 | 31.6 | 52.9 | > 100 | 15.6 | 29.8 | 9.95 | 24.9 | 17.3 | 41.2 | 28.9 | 76.1 | 26.9 | > 100 | 28.9 | 74.1
6 | CC(=O)O[C@H]1CCC2[C@@H]3CCC4c5nonc5CC[C@]4(C)C3CC[C@@]21C (stereo partly specified) | > 100 | > 100 |  | > 10 | > 100 | > 100 | > 100 | > 100 | > 100 | > 100 |  | > 10 |  | > 10 | > 100 | > 100 | > 100 | > 100 |  | > 10
7 | Cc1ccc(-c2csc(NC(=O)N3CCN(c4cc5c(cc4F)c(=O)c(C(=O)O)cn5C4CC4)CC3)n2)cc1 | 0.335 | > 100 | 0.484 | > 100 | 0.431 | 3.91 | 0.307 | > 100 | 1.1 | 5.67 | 0.355 | > 100 | 0.291 | 2.15 | 0.867 | > 100 | 1.37 | 4.36 | 2 | 6.58
8 | O=C1C(SCCO)=C(SCCO)C(=O)N1c1ccc(-c2ccccc2)cc1 | 0.536 | 1.24 | 4.88 | 10.6 | 1.87 | 7.24 | 1.02 | 3.5 | 1.61 | 5.31 | 9.75 | 34.9 | 7.51 | 22.6 | 3.61 | 11 | 0.259 | 1.69 | 3.32 | 7.62
9 | Nc1ncnc2c1c(-c1ccc(Oc3ccccc3)cc1)nn2C[C@@H]1SSC[C@H]1O | 0.364 | 5.23 | 0.797 | 6.74 | 1.75 | 5.87 | 0.732 | 7.98 | 1.25 | 6.45 | 0.281 | 1.45 | 2.08 | 7.18 | 3.47 | 26.6 | 0.826 | 3.13 | 1.44 | 7.56

— PubChem BioAssay (NCI)
